Results reported in patent publication EP1954678B1, “NOVEL NK1 AND NK2 ANTAGONISTS” (Abbott Products GmbH, priority 2005, dated 2007).
Read-outs that look alike come from different tables or passages of the source.

Tests used:
[1] = molecular target: T1, human NK1 receptors (Homo sapiens, UniProt P25103); assay: Binding of the test substances to NK1 receptors in vitro ([3H]-Substance P displacement, CHO cell membranes); details: [3H]-Substance P as ligand; membranes of CHO cells expressing the human NK1 receptor; Ki calculated from IC50; read-out: pKi (NK1) (converted)
T1 construct: expressed in transfected cells; host or cells: CHO cells (membrane preparation)
T1 sequence (P25103 whole entry): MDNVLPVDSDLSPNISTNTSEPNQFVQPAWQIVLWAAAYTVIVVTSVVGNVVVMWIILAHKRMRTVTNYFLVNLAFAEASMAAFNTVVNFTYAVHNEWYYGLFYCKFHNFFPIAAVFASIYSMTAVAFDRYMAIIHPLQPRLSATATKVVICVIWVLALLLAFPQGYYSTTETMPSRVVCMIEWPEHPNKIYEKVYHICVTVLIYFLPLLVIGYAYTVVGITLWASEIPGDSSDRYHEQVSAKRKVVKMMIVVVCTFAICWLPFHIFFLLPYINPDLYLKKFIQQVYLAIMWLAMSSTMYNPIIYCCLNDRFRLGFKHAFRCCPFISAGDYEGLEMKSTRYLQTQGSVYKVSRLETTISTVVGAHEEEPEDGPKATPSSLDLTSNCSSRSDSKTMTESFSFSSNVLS
Description: In The Netherlands, the affinity of the test substances to human NK1 receptors was measured in vitro.
The receptor binding studies were performed with [^3H]-Substance P as ligand. For the binding test, different samples of a membrane preparation of CHO cells (= egg cells of the Chinese hamster, Chinese hamster oocytes), which express the human NK1 receptor ("Accession Number" of the associated nucleic acid sequence = M74290; "Accession Number" of the associated protein sequence = P25103; cf. Takeda, Y.; Chou, K. B., Takeda, J.; Sachais, B.S. and Krause, J. E; Biochemical and Biophysical Research Communications, 179(3) (1991) 1232 - 1240), were incubated with a solution of the marked ligand, with the incubation mixtures containing no test substance or additions of different concentrations of test substance. Then, separation of bound and free ligands was performed in each of the samples with the aid of glass-fibre filtration. The fraction remaining in the filter was washed several times with buffer solution and then the radioactivity of the fraction remaining in the filter was measured using a beta scintillation counter.
For the compounds of Examples 1 to 14, that concentration which effects half maximum displacement of the bound ligand was determined as IC50 of the respective test substance. From this, the corresponding inhibition constant (Ki value) of the test substance was calculated, and was stated as the negative common logarithm of the Ki value (= pKi value). The pKi value is a measurement of the affinity of the test substances to human NK1 receptors.

[2] = molecular target: T2, NK2 receptors (Cavia porcellus, UniProt Q64077); assay: NK-2-receptor-antagonistic effectiveness in vivo in anaesthetised guinea pigs (NKA test stimulus: late hypotension, bronchoconstriction, colonic pressure); parameters: from tissue; host or cells: whole anaesthetised guinea pig (in vivo); species or system Pirbright-White guinea pigs; details: guinea pig, iv
T2 sequence (Q64077 1-402): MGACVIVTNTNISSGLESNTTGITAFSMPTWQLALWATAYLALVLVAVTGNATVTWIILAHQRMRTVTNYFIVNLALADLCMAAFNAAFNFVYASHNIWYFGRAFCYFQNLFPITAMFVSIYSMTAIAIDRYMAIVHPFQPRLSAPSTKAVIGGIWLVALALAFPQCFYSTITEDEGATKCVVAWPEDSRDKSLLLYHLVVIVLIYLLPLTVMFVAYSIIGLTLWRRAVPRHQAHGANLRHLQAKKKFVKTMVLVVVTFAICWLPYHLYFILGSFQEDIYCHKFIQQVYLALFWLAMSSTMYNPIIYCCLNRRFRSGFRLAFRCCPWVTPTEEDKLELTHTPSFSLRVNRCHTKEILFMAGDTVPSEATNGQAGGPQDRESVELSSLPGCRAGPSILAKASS
From the text: (§1) The NK-1- and NK-2-antagonistic activities of the test substances were investigated in anaesthetised guinea pigs in each case after intravenous (= i.v.) and oral (= p.o.) administration in vivo. With the present test model it is possible to detect both NK-2-antagonistic effects in three different organ systems (respiratory tracts, colon and circulation) and NK-1-antagonistic effects (rapid drop in blood pressure) in an animal simultaneously.
(§2) Pirbright-White guinea pigs of a body weight of 500-700 g were anaesthetised with ketamine/xylazine (67/13 mg/kg subcutaneously, initial dose, further doses administered as required). The animals were provided with an intravenous catheter in order to administer the substance and an intra-arterial catheter to measure the blood pressure. The animals were artificially ventilated via a tracheal cannula and the respiratory pressure was recorded by means of a pressure transducer. A balloon was introduced into the distal colon of the animals for manometric recording of colon motility by means of a pressure transducer. Blood pressure, heart rate, respiratory pressure and colonic pressure were measured continuously for each animal and plotted on a recorder and by means of a digital data-processing system. […] The second phase of delayed hypotension (= phase of maximum hypotension after 2-5 min.) on the other hand is mediated via NK-2 receptors, since they can be blocked by specific NK-2 receptor antagonists. […] Table 6: NK-1- and NK-2-receptor-antagonistic effective-ness of the test substances of Formula I on guinea pigs in vivo after intravenous administration
(§3) These ED50 values obtained from cumulative dose effect curves are plotted in table 6.
(§4) The antagonistic effects of the test substances were then determined as "area under the curve" ("AUC") over the investigation period after administration of the test substances (1 - 180 min after administration) and the ED50 values after oral administration obtained therefrom were plotted in table 7. Table 7: NK-1- and NK-2-receptor-antagonistic effective-ness of the test substances of Formula I on guinea pigs in vivo after oral administration

[3] = molecular target: T3, NK1 receptors (Cavia porcellus, UniProt P30547); assay: NK-1-receptor-antagonistic effectiveness in vivo in anaesthetised guinea pigs (NKA test stimulus, early hypotension); parameters: from tissue; host or cells: whole anaesthetised guinea pig (in vivo); species or system Pirbright-White guinea pigs; details: guinea pig, iv, read-out: ED50 iv after 1 min (cumulative) NK1 (early hypotension)
T3 sequence (P30547 whole entry): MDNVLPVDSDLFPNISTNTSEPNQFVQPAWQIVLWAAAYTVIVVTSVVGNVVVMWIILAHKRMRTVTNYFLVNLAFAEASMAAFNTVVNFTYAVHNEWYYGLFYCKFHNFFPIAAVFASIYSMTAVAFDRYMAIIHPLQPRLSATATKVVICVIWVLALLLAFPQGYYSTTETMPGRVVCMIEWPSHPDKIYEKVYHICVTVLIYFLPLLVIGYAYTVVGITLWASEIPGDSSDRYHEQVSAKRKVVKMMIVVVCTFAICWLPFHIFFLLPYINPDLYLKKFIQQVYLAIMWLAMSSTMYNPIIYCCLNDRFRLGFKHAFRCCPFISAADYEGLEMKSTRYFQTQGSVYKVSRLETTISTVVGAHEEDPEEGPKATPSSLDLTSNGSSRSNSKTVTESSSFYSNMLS
From the text: as §1, §2, §3, §4

[4] = molecular target: T4, human NK2 receptors (Homo sapiens, UniProt P21452); assay: Binding of the test substances to NK2 receptors in vitro ([3H]-SR 48968 displacement, CHO cell membranes); details: [3H]-SR 48968 as ligand; membranes of CHO cells expressing the human NK2 receptor; 90 min incubation; Ki calculated from IC50; read-out: pKi (NK2) (converted)
T4 construct: expressed in transfected cells; host or cells: CHO cells (membrane preparation)
T4 sequence (P21452 1-398): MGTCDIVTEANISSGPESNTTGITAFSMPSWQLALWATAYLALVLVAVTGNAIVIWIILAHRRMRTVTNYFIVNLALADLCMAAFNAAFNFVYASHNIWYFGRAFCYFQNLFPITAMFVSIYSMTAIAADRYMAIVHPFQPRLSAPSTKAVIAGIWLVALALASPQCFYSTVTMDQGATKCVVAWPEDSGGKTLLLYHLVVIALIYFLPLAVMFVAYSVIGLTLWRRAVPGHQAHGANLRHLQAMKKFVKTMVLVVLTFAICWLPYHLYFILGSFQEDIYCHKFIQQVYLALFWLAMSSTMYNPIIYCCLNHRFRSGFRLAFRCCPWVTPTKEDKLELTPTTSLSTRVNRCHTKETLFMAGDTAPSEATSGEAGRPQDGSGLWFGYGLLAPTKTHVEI
Description: The affinity of the test substances to human NK2 receptors was measured in vitro. The ability of the test substances to displace the selective NK2 receptor antagonist SR 48968 (= saredutant) used as reference ligand from its corresponding bond was determined.
The receptor binding studies were carried out with radioactively marked [^3H]-SR 48968 (from Amersham) as ligand. For the binding test, different samples of a membrane preparation of CHO cells (= egg cells of the Chinese hamster, Chinese hamster oocytes), which express the human NK2 receptor (for preparation, see N.P. Gerard et al., Journal of Biological Chemistry 265/33 (1990) 20455-20462), were incubated for 90 minutes (= min.) with a solution of the marked ligand, with the incubation mixtures containing no test substance or additions of different concentrations of test substance. Then in each case the membrane-bound ligands in the samples were separated from free ligands by filtration. The fraction remaining in the filter was washed several times with buffer solution, before its radioactivity was measured using a liquid scintillation counter. That concentration which effects half-maximum displacement of the bound reference ligand was determined as IC50 of the respective test substance. The inhibition constant (Ki value) of the test substance was calculated from the respective IC50 value, and was stated as the negative logarithmised value thereof (pKi).
If several measurements were performed, the average thereof was listed each time. The pKi value is a measurement of the affinity of the test substances to human NK2 receptors.

[5] = molecular target: T5, cloned human NK1 receptors (Homo sapiens, UniProt P25103); assay: Ca2+ measurements using FLIPR for NK1 activity in CHO cells; assay type: cell-based; details: substance P 10^-8 M as agonist; compound applied 7 min before; pA2 calculated from IC50
T5 construct: expressed in transfected cells
T5 sequence (P25103 whole entry): as the sequence (P25103 whole entry) above
From the text: (§5) The NK receptor is coupled to Gq.
(§6) All steps were done under sterile conditions. […] The results are summarized in table 5: Table 5: pA2 data for NK1 and NK2: […]

[6] = molecular target: T6, cloned human NK2 receptors (Homo sapiens, UniProt P21452); assay: Ca2+ measurements using FLIPR for NK2 activity in CHO cells; assay type: cell-based; details: NKA 10^-7 M as agonist; compound applied 7 min before; pA2 calculated from IC50
T6 construct: expressed in transfected cells
T6 sequence (P21452 1-398): T4 sequence (P21452 1-398)
From the text: as §5, §6

[7] = molecular target: T2, NK2 receptors; assay: Functional NK2 antagonism on isolated guinea pig gall-bladder preparations (NKA induced contraction); parameters: from tissue; host or cells: guinea pig gall-bladder preparations; species or system Pirbright-White guinea pigs
Description: The NK2 receptor-antagonising action of the test substances was determined on isolated gall-bladder preparations from Pirbright-White guinea pigs, held in an oxygen-saturated nutrient solution. To this end, the preparations were fastened on one hand in the nutrient solution to organ holders and on the other hand on a force meter by a thread.
The concentration of the test substances was increased iteratively in the subsequent experiments as a function of the result in logarithmic whole or half steps, until at least one concentration above or below 50% inhibition of contraction was determined (up to at most 10^-5 mol/l). For each concentration, the average value of inhibition of contraction was calculated from 2 to 4 preparations. In each case, the concentration of half-maximum inhibition (IC50) per test substance was calculated as characteristic variable.

[8] = molecular target: T3, NK1 receptors; assay: Functional NK1 antagonism on isolated guinea pig aorta ring preparations (Substance P induced relaxation); parameters: from tissue; host or cells: guinea pig aorta ring preparations; species or system Pirbright-White guinea pigs
Description: In The Netherlands, the action antagonistic to NK1 receptors of the test substances was measured in vitro on isolated ring preparations, kept in an oxygenated nutrient solution, of the aortas of Pirbright-White guinea pigs.
In order to measure the contraction of the vessel muscles, the preparations were fixed to a hook, joined by a thread to a force measuring apparatus and the contractions were recorded in each case on a plotter. The aorta preparations were tonicised with phenylephrine. […] The relaxations before and after the administration of the test substance were quantified in percent. The effective concentration of the half maximum inhibition of the relaxation of the tone (= EC50) was calculated. The negative common logarithm of the EC50 value (= pEC50) was given as characteristic variable. The pEC50 value is a measurement of the functional effectiveness of the test substances on NK1 receptors.

[9] = read-out: ED50 iv after 1 min (cumulative) NK2 (broncho-constriction)
[10] = read-out: ED50 iv after 1 min (cumulative) NK2 (colonic motility)
[11] = read-out: ED50 iv after 1 min (cumulative) NK2 (late hypotension)

| Ki [1] [µM] | ED50 [2, 9] [µmol/kg] | ED50 [2, 10] [µmol/kg] | ED50 [2, 11] [µmol/kg] | ED50 [3] [µmol/kg] | Ki [4] [µM] | Kb [5] [µM] | Kb [6] [µM] | IC50 [7] [µM] | EC50 [8] [µM] | SMILES |
| --- | --- | --- | --- | --- | --- | --- | --- | --- | --- | --- |
| 0.01 | 0.045 | 0.109 | 0.04 | 0.041 | 0.1 |  |  |  |  | CN(C[C@@H](CCN1CCN([C@@H](c2ccsc2)[C@H]2COC(=O)O2)CC1)c1ccc(Cl)c(Cl)c1)C(=O)c1cc(C#N)cc2ccccc12 [Compound 10, 3-cyano-N-[(2S)-2-(3,4-dichlorophenyl)-4-{4-[(S)-[(4S)-2-oxo-1,3-dioxolan-4-yl](3-thienyl)methyl]piperazin-1-yl}butyl]-N-methyl-1-naphthamide] |
|  | 0.725 | 0.961 | 1.17 | 0.029 |  |  |  |  |  | CN(C[C@@H](CCN1CCN([C@@H](c2ccccc2)[C@H](O)CO)CC1)c1ccc(Cl)c(Cl)c1)C(=O)c1cc(C#N)cc2ccccc12 [Compound 23, 3-cyano-N-[(2S)-2-(3,4-dichlorophenyl)-4-{4-[(1S,2S)-2,3-dihydroxy-1-phenylpropyl]piperazin-1-yl)butyl]-N-methyl-1-naphthamide] |
| 0.01 | 0.943 | 0.287 | 1.04 | 0.099 | 0.0631 | 0.00316 |  |  |  | CN(C[C@@H](CCN1CCN([C@@H](c2cccs2)[C@H](O)CO)CC1)c1ccc(Cl)c(Cl)c1)C(=O)c1cc(C#N)cc2ccccc12 [Compound 9, 3-cyano-N-[(2S)-2-(3,4-dichlorophenyl)-4-{4-[(1R,2S)-2,3-dihydroxy-1-(2-thienyl)propyl]piperazin-1-yl}butyl]-N-methyl-1-naphthamide] |

Second part, the compound before the results:

| SMILES | Ki [1] [µM] | ED50 [2, 9] [µmol/kg] | ED50 [2, 10] [µmol/kg] | ED50 [2, 11] [µmol/kg] | ED50 [3] [µmol/kg] | Ki [4] [µM] | Kb [5] [µM] | Kb [6] [µM] | IC50 [7] [µM] | EC50 [8] [µM] |
| --- | --- | --- | --- | --- | --- | --- | --- | --- | --- | --- |
| CN(C[C@@H](CCN1CCN([C@@H](c2ccsc2)[C@H](O)CO)CC1)c1ccc(Cl)c(Cl)c1)C(=O)c1cc(C#N)cc2ccccc12 [Compound 8, 3-cyano-N-[(2S)-2-(3,4-dichlorophenyl)-4-{4-[(1S,2S)-2,3-dihydroxy-1-(3-thienyl)propyl]piperazin-1-yl}butyl]-N-methyl-1-naphthamide] | 0.00794 | 1.13 | 0.135 | 0.803 | 0.07 | 0.0316 | 0.000631 | 0.00126 |  |  |
| CN(C[C@@H](CCN1CCN([C@@H](c2ccsc2)[C@H](O)[C@@H](O)[C@H](O)CO)CC1)c1ccc(Cl)c(Cl)c1)C(=O)c1cc(C#N)cc2ccccc12 [Compound 5, 3-cyano-N-[(2S)-2-(3,4-dichlorophenyl)-4-{4-[(1S,2S,3R,4R)-2,3,4,5-tetrahydroxy-1-(3-thienyl)pentyl]piperazin-1-yl}butyl]-N-methyl-1-naphthamide] | 0.00126 |  |  |  |  | 0.0501 |  |  | 0.0316 | 0.0001 |
